Experimental data published in ChEMBL document CHEMBL1221341, “[17(20)E]- and [17(20)Z]-pregna-5,17(20)-dien-21-oylamides. Facile synthesis and primary evaluation for cancer cells proliferation” (Bioorg Med Chem Lett, 2010).
The source made the active and inactive calls. No cut-off for these calls is given here.

Legend:
Format in all cases: functional, cell-based
MCF7 [1] = assay: Antiproliferative activity against human MCF7 cells at 0.1 to 0.3 uM after 48 hrs by MTT assay
LNCaP [2] = assay: Antiproliferative activity against human LNCAP cells at 0.1 to 0.3 uM after 48 hrs by MTT assay
MCF7 [3] = assay: Antiproliferative activity against human MCF7 cells at 30 uM after 48 hrs by MTT assay
LNCaP [4] = assay: Antiproliferative activity against human LNCAP cells at 30 uM after 48 hrs by MTT assay

Row | SMILES | Activity (MCF7 [1]) | Activity (LNCaP [2]) | Activity (MCF7 [3]) | Activity (LNCaP [4])
1 | C[C@]12CC[C@H](O)CC1=CC[C@@H]1[C@@H]2CC[C@]2(C)/C(=C\C(=O)N3CCCC3)CC[C@@H]12 | inactive |  |  | 
2 | C[C@]12CC[C@H](O)CC1=CC[C@@H]1[C@@H]2CC[C@]2(C)/C(=C/C(=O)N3CCCC3)CC[C@@H]12 |  | Active |  | 
3 | C[C@]12CC[C@H](O)CC1=CC[C@@H]1[C@@H]2CC[C@]2(C)/C(=C/C(N)=O)CC[C@@H]12 | inactive | inactive | Active | Active
4 | C[C@]12CC[C@H](O)CC1=CC[C@@H]1[C@@H]2CC[C@]2(C)/C(=C/C(=O)NCCO)CC[C@@H]12 | inactive | inactive | Active | Active
